From ChEMBL document CHEMBL1123903, “Synthesis and antimalarial effects of 4-[(7-chloro-4-quinolinyl)amino]-2-[(diethylamino)methyl] -6-alkylphenols and their N omega-oxides” (1987)

system: Mus musculus; experiment: Number of mice surviving at 60 days postinfection when administered as a single dose of 40 mg/kg (sc) 72-h post infection (delta MST); assay type: functional; conditions: not given

In order of rising Cures:
1. CCc1cc(Nc2cc[n+]([O-])c3cc(Cl)ccc23)cc(CN(CC)CC)c1O  1
2. CCc1cc(Nc2ccnc3cc(Cl)ccc23)cc(CN(CC)CC)c1O  1
3. CCN(CC)Cc1cc(Nc2ccnc3cc(Cl)ccc23)c2c(c1O)CCCC2  2
4. CCN(CC)Cc1cc(Nc2ccnc3cc(Cl)ccc23)cc(C(C)C)c1O  3

system: Mus musculus; experiment: Number of mice surviving at 60 days postinfection when administered as a single dose of 640 mg/kg (sc) 72-h post infection; assay type: functional; conditions: not given

In order of rising Cures:
1. CCN(CC)Cc1cc(Nc2ccnc3cc(Cl)ccc23)c2c(c1O)CCCC2  3
2. CCc1cc(Nc2cc[n+]([O-])c3cc(Cl)ccc23)cc(CN(CC)CC)c1O  4
3. CCN(CC)Cc1cc(Nc2ccnc3cc(Cl)ccc23)cc(C(C)C)c1O  5

system: Mus musculus; experiment: Number of mice surviving at 60 days postinfection when administered as a single dose of 640 mg/kg (sc) 72-h post infection (delta MST); assay type: functional; conditions: not given

For `CCc1cc(Nc2ccnc3cc(Cl)ccc23)cc(CN(CC)CC)c1O`, the Cures was 4.

system: Mus musculus; experiment: Number of mice surviving at 60 days postinfection when administered as a single dose of 80 mg/kg (sc) 72-h post infection (delta MST); assay type: functional; conditions: not given

In order of rising Cures:
1. CCN(CC)Cc1cc(Nc2ccnc3cc(Cl)ccc23)c2c(c1O)CCCC2  2
2. CCc1cc(Nc2ccnc3cc(Cl)ccc23)cc(CN(CC)CC)c1O  2
3. CCc1cc(Nc2cc[n+]([O-])c3cc(Cl)ccc23)cc(CN(CC)CC)c1O  3
4. CCN(CC)Cc1cc(Nc2ccnc3cc(Cl)ccc23)cc(C(C)C)c1O  4

system: Mus musculus; experiment: Number of mice surviving at 60 days postinfection when administered as a single dose of 160 mg/kg (sc) 72-h post infection (delta MST); assay type: functional; conditions: not given

In order of rising Cures:
1. CCc1cc(Nc2cc[n+]([O-])c3cc(Cl)ccc23)cc(CN(CC)CC)c1O  2
2. CCN(CC)Cc1cc(Nc2ccnc3cc(Cl)ccc23)c2c(c1O)CCCC2  2
3. CCc1cc(Nc2ccnc3cc(Cl)ccc23)cc(CN(CC)CC)c1O  4

system: Mus musculus; experiment: Number of mice surviving at 60 days postinfection when administered as a single dose of 320 mg/kg (sc) 72-h post infection; assay type: functional; conditions: not given

With `CCN(CC)Cc1cc(Nc2ccnc3cc(Cl)ccc23)cc(C(C)C)c1O` the Cures was 5.

system: Mus musculus; experiment: Number of mice surviving at 60 days postinfection when administered as a single dose of 320 mg/kg (sc) 72-h post infection (delta MST); assay type: functional; conditions: not given

In order of falling Cures:
1. CCc1cc(Nc2ccnc3cc(Cl)ccc23)cc(CN(CC)CC)c1O  4
2. CCc1cc(Nc2cc[n+]([O-])c3cc(Cl)ccc23)cc(CN(CC)CC)c1O  3
3. CCN(CC)Cc1cc(Nc2ccnc3cc(Cl)ccc23)c2c(c1O)CCCC2  3

system: Mus musculus; experiment: Antimalarial activity tested against trophozoite induced Plasmodium berghei in mice (Mus musculus) expressed as change in mean survival time after a single dose of 10 mg/kg (subcutaneously); assay type: functional; conditions: route subcutaneous

In order of falling “Delta MST” value:
1. CCN(CC)Cc1cc(Nc2ccnc3cc(Cl)ccc23)cc(C(C)C)c1O  11.1 days
2. CCN(CC)Cc1cc(Nc2ccnc3cc(Cl)ccc23)c2c(c1O)CCCC2  6.8 days
3. CCc1cc(Nc2ccnc3cc(Cl)ccc23)cc(CN(CC)CC)c1O  6.1 days
4. CCc1cc(Nc2cc[n+]([O-])c3cc(Cl)ccc23)cc(CN(CC)CC)c1O  3.7 days

system: Plasmodium berghei; experiment: Change in mean survival time of trophozoite-induced Plasmodium berghei infection after 160 mg/kg subcutaneous dose; assay type: functional; conditions: not given

In order of falling “Delta MST” value:
1. CCN(CC)Cc1cc(Nc2ccnc3cc(Cl)ccc23)c2c(c1O)CCCC2  15.1 days
2. CCc1cc(Nc2ccnc3cc(Cl)ccc23)cc(CN(CC)CC)c1O  14.4 days
3. CCc1cc(Nc2cc[n+]([O-])c3cc(Cl)ccc23)cc(CN(CC)CC)c1O  13.4 days

system: Plasmodium berghei; experiment: Change in mean survival time of trophozoite-induced Plasmodium berghei infection after 20 mg/kg subcutaneous dose; assay type: functional; conditions: not given

In order of rising “Delta MST” value:
1. CCc1cc(Nc2cc[n+]([O-])c3cc(Cl)ccc23)cc(CN(CC)CC)c1O  5.5 days
2. CCc1cc(Nc2ccnc3cc(Cl)ccc23)cc(CN(CC)CC)c1O  12.1 days
3. CCN(CC)Cc1cc(Nc2ccnc3cc(Cl)ccc23)c2c(c1O)CCCC2  12.6 days
4. CCN(CC)Cc1cc(Nc2ccnc3cc(Cl)ccc23)cc(C(C)C)c1O  18.1 days

system: Mus musculus; experiment: Antimalarial activity tested against trophozoite induced Plasmodium berghei in mice (Mus musculus) expressed as change in mean survival time after a single dose of 320 mg/kg (subcutaneously); assay type: functional; conditions: route subcutaneous

In order of falling “Delta MST” value:
1. CCc1cc(Nc2ccnc3cc(Cl)ccc23)cc(CN(CC)CC)c1O  34.4 days
2. CCN(CC)Cc1cc(Nc2ccnc3cc(Cl)ccc23)c2c(c1O)CCCC2  28.3 days
3. CCc1cc(Nc2cc[n+]([O-])c3cc(Cl)ccc23)cc(CN(CC)CC)c1O  13.4 days

system: Plasmodium berghei; experiment: Change in mean survival time of trophozoite-induced Plasmodium berghei infection after 40 mg/kg subcutaneous dose; assay type: functional; conditions: not given

In order of rising “Delta MST” value:
1. CCN(CC)Cc1cc(Nc2ccnc3cc(Cl)ccc23)c2c(c1O)CCCC2  12.8 days
2. CCc1cc(Nc2cc[n+]([O-])c3cc(Cl)ccc23)cc(CN(CC)CC)c1O  13.2 days
3. CCN(CC)Cc1cc(Nc2ccnc3cc(Cl)ccc23)cc(C(C)C)c1O  27.9 days

system: Mus musculus; experiment: Antimalarial activity tested against trophozoite induced Plasmodium berghei in mice (Mus musculus) expressed as change in mean survival time after a single dose of 640 mg/kg (subcutaneously); assay type: functional; conditions: route subcutaneous

In order of falling “Delta MST” value:
1. CCc1cc(Nc2ccnc3cc(Cl)ccc23)cc(CN(CC)CC)c1O  27.4 days
2. CCc1cc(Nc2cc[n+]([O-])c3cc(Cl)ccc23)cc(CN(CC)CC)c1O  1.4 days

system: Plasmodium berghei; experiment: Change in mean survival time of trophozoite-induced Plasmodium berghei infection after 80 mg/kg subcutaneous dose; assay type: functional; conditions: not given

In order of falling “Delta MST” value:
1. CCN(CC)Cc1cc(Nc2ccnc3cc(Cl)ccc23)cc(C(C)C)c1O  25.4 days
2. CCc1cc(Nc2ccnc3cc(Cl)ccc23)cc(CN(CC)CC)c1O  20.7 days
3. CCN(CC)Cc1cc(Nc2ccnc3cc(Cl)ccc23)c2c(c1O)CCCC2  14.8 days
4. CCc1cc(Nc2cc[n+]([O-])c3cc(Cl)ccc23)cc(CN(CC)CC)c1O  10.9 days

system: not listed separately; experiment: Antimalarial activity tested against trophozoite induced Plasmodium berghei in mice (Mus musculus) expressed as change in mean survival time after a single dose of 40 mg/kg (subcutaneously); assay type: functional; conditions: route subcutaneous

With `CCc1cc(Nc2ccnc3cc(Cl)ccc23)cc(CN(CC)CC)c1O` the “Delta MST” value was 12.4 days.

system: Mus musculus; experiment: Number of mice surviving at 60 days postinfection when administered as a single dose of 160 mg/kg (sc) 72-h post infection; assay type: functional; conditions: not given

`CCN(CC)Cc1cc(Nc2ccnc3cc(Cl)ccc23)cc(C(C)C)c1O` showed a Cures of 5.
